Measurements reported in US20070219254A1, “Therapeutic Compounds: Pyridine N-Oxide Scaffold” (priority 2004, published 2007).
Where two headings read alike, the source gives them in different places.

Key:
[1] = biological target: T1, Human CB1 receptor (Homo sapiens, UniProt P21554); test: hCB1 receptor binding (3H-CP55,940 displacement)
T1 construct: purchased Receptor Biology
Description: Human CB1 receptor from Receptor Biology (hCB1) or human CB2 receptor from BioSignal (hCB2) membranes are thawed at 37° C., passed 3 times through a 25-gauge blunt-end needle, diluted in the cannabinoid binding buffer (50 mM Tris, 2.5 mM EDTA, 5 mM MgCl2, and 0.5 mg/mL BSA fatty acid free, pH 7.4) and aliquots containing the appropriate amount of protein are distributed in 96-well plates. The IC50 of the compounds of the invention at hCB1 and hCB2 are evaluated from 10-point dose-response curves done with ^3H-CP55,940 at 20000 to 25000 dpm per well (0.17-0.21 nM) in a final volume of 300 μl. The total and non-specific binding are determined in the absence and presence of 0.2 μM of HU210 respectively. The plates are vortexed and incubated for 60 minutes at room temperature, filtered through Unifilters GF/B (presoaked in 0.1% polyethyleneimine) with the Tomtec or Packard harvester using 3 mL of wash buffer (50 mM Tris, 5 mM MgCl2, 0.5 mg BSA pH 7.0). The filters are dried for 1 hour at 55° C. The radioactivity (cpm) is counted in a TopCount (Packard) after adding 65 μl/well of MS-20 scintillation liquid.
Based on the above assays, the dissociation constant (Ki) for a particular compound of the invention towards a particular receptor is determined using the following equation: […]
Wherein IC50 is the concentration of the compound of the invention at which 50% displacement has been observed;
[rad] is a standard or reference radioactive ligand concentration at that moment; and
Kd is the dissociation constant of the radioactive ligand towards the particular receptor.

[2] = biological target: T1, Human CB1 receptor; test: hCB1 GTPγS binding; format: biochemical; details: for Emax: maximal stimulation defined by 10 μM Win 55,212-2
Description: Human CB1 receptor from Receptor Biology (hCB1) or human CB2 receptor membranes (BioSignal) are thawed at 37° C., passed 3 times through a 25-gauge blunt-end needle and diluted in the GTPγS binding buffer (50 mM Hepes, 20 mM NaOH, 100 mM NaCl, 1 mM EDTA, 5 mM MgCl2, pH 7.4, 0.1% BSA). The EC50 and Emax of the compounds of the invention are evaluated from 10-point dose-response curves done in 300 μl with the appropriate amount of membrane protein and 100000-130000 dpm of GTPg^35S per well (0.11-0.14 nM). The basal and maximal stimulated binding is determined in absence and presence of 1 μM (hCB2) or 10 μM (hCB1) Win 55,212-2 respectively. The membranes are pre-incubated for 5 minutes with 56.25 μM (hCB2) or 112.5 μM (hCB1) GDP prior to distribution in plates (15 μM (hCB2) or 30 μM (hCB1) GDP final). The plates are vortexed and incubated for 60 minutes at room temperature, filtered on Unifilters GF/B (presoaked in water) with the Tomtec or Packard harvester using 3 ml of wash buffer (50 mM Tris, 5 mM MgCl2, 50 mM NaCl, pH 7.0). The filters are dried for 1 hour at 55° C. The radioactivity (cpm) is counted in a TopCount (Packard) is after adding 65 μl/well of MS-20 scintillation liquid. Antagonist reversal studies are done in the same way except that (a) an agonist dose-response curve is done in the presence of a constant concentration of antagonist, or (b) an antagonist dose-response curve is done in the presence of a constant concentration of agonist.

[3] = hCB1 membranes, 3H-CP55,940, Ki=IC50/(1+[rad]/Kd), read-out: Ki (hCB1)
[4] = hCB1 membranes, GTPγ35S, read-out: EC50 (hCB1)

T1 sequence (P21554 whole entry): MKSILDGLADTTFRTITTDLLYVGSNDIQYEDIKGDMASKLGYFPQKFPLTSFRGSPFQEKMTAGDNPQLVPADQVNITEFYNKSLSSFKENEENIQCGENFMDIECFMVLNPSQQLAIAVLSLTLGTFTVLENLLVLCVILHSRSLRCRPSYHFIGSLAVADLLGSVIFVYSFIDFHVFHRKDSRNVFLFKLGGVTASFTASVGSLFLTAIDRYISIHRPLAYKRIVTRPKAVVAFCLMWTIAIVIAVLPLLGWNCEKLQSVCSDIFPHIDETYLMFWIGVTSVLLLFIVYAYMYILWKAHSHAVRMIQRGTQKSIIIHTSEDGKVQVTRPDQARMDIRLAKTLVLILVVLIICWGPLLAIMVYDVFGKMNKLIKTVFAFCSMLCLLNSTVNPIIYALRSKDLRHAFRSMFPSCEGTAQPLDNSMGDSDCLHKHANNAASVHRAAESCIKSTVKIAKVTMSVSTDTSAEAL

Structure (SMILES)	Ki [1] [nM]	EC50 [2] [nM]	Emax ([2]; hCB1 membranes) [%]	Ki [1, 3] [nM]	EC50 [2, 4] [nM]
O=C(Nc1ccc[n+]([O-])c1C(=O)NCC1CCCCC1)c1cccc2ccccc12 [Example 7, N-(Cyclohexylmethyl)-3-[(1-naphthalenylcarbonyl)amino]-1-oxide-2-pyridinecarboxamide]	47	506	128		
Cc1ccc(C(=O)Nc2ccc[n+]([O-])c2C(=O)NCC2CCC2)c2ccccc12 [Example 2, N-(Cyclobutylmethyl)-3-[[(4-methyl-1-naphthalenyl)carbonyl]amino]-1-oxide-2-pyridinecarboxamide]			106	18	167
Cc1ccc(C(=O)Nc2ccc[n+]([O-])c2C(=O)NCC2CCCCC2)c2ccccc12 [Example 8, N-(Cyclohexylmethyl)-3-[(4-methyl-1-naphthalenylcarbonyl)amino]-1-oxide-2-pyridinecarboxamide]			122	42	191
